Experimental data reported in patent US5620676A, “Biologically active ATP analogs” (priority 1995, dated 1997).
Entries after “also recorded” stand apart in the source; their conditions may differ. Read-outs that look alike come from different tables or passages of the source.

Columns and labels:
[1] = biological target: T1, P2Y receptor (turkey erythrocyte membranes) (Meleagris gallopavo, UniProt P49652); assay: Stimulation of phospholipase C (inositol phosphate formation) in turkey erythrocyte membranes; format: biochemical
T1 construct: from tissue; host or cells: washed turkey erythrocytes, ghosts prepared by hypotonic lysis
Experimental: Phospholipase C activity: Stimulation of inositol phosphate formation by compounds of the present invention was measured in turkey erythrocyte membranes as described by Harden et al., supra and Boyer et al., supra. The K0.5 values were averaged from 3-8 independently determined dose-response curves for each compound. Briefly, one ml of washed turkey erythrocytes was incubated in inositol-free medium (DMEM; Gibco) with 0.5-1 mCi of 2-[^3 H]myoinositol (20 Ci/mmol; American Radiolabeled Chemicals Inc., St. Louis, Mo.)for 18-24 h in a humidified atmosphere of 95% air 5% CO2 at 37° C. Erythrocyte ghosts were prepared by rapid lysis in hypotonic buffer (5 mM sodium phosphate, pH 7.4, 5 mM MgCl2, 1 mM EGTA) as described by Boyer et al., supra. Phospholipase C activity was measured in 25 μl of [^3 H]inositol-labeled ghosts (≈175 μg of protein, 200-500,000 cpm/assay) in a medium containing 424 μM CaC12, 0.91 mM MgSO4, 2 mM EGTA, 115 mM KCl, 5 mM KH2 PO4, and 10 mM Hepes, pH 7.0. Assay (100 μl or 200 μl final volume) contained 1 μM GTPγS and the indicated concentrations of nucleotide analogs. Ghosts were incubated at 30° C. for 5 min, and total [^3 H]inositol phosphates were quantitated after purification by anion exchange chromatography according to Harden et al. (supra) and Boyer et al. (supra).
(§1) Phospholipase C activity and muscle relaxation/contraction effects were assessed using the methods recited in Example 3. In FIGS. 10-12, which present the result of assays of phospholipase C activity in turkey erythrocyte membranes, the x-axis is marked in units of the log of the molar concentration of the putative P2Y receptor agonist tested and the y-axis is marked in units of the percentage of maximum production of [^3 H]-inositol phosphate generated. In FIG. 13, the x-axis is marked in units of the negative log of the molar concentration of applied putative P2Y receptor agonists and the y-axis is marked in units of the percentage relaxation of the 50 nM carbachol-induced contraction of guinea pig taenia coli. In FIG. 14, the x-axis is also marked in units of the negative log of the molar concentration of applied putative P2Y receptor agonists and the y-axis is marked in units of the percentage relaxation of the 1 μM noradrenalin-induced contraction of rabbit aorta endothelium. In FIGS. 15-16, the x-axis is marked in units of the negative log of the molar concentration of applied putative p^2X receptor agonists and the y-axis is marked in units of the percentage contraction relative to a standard dose of KCl (i.e., 60 mM), as assessed in guinea pig isolated urinary bladder detrussor muscle (FIG. 15) and guinea pig isolated vas deferens (FIG. 16).

[2] = biological target: P2Y receptor (mesenteric artery); assay: Relaxation of rabbit mesenteric artery; conditions: log molar units
[3] = system: P2Y receptor (aorta endothelium); assay: Relaxation of noradrenalin-contracted rabbit aorta; conditions: rabbit aorta; log molar units
[4] = biological target: T2, P2Y receptor (taenia coli) (Cavia porcellus, UniProt P59902); assay: Relaxation of carbachol-contracted guinea pig taenia coli
T2 construct: Relaxant responses mediated via P2Y receptors were examined in guinea pig taenia coli; from tissue; host or cells: guinea pig taenia coli (carbachol-contracted)
Description: Muscular relaxation/contraction: Relaxant responses mediated via P2Y receptors were examined in guinea pig taenia coli, rabbit aorta, and rabbit mesenteric artery, as described by Hoyle et al. (Br. J. Pharmacol., 107, 367-374 (1992a)), Burnstock et al., (Br. J. Pharmacol., 90, 383-391 (1987a)), and Rubino et al., (Eur. J. Pharmacol., 212, 237-240 (1992)). Contractile responses mediated via P2X receptors were examined in the guinea pig urinary bladder and vas deferens, and rabbit saphenous artery, also using standard methods (see Hoyle et al., supra., 1992; Hoyle et al., Br. J. Pharmacol., 99, 617-621 (1990); and Burnstock et al., Br. J. Pharmacol., 90, 111-120 (1987b)).
Muscular relaxation assays were performed as recited in Example 3. […] All curves are the mean of two determinations except for 5'-ATP (n=38), 2-hexylthio-ATP (n=4), 2-(5-hexenyl)thio-ATP (n=3), and 2-(2-4-nitrophenylethyl)thio-AMP (n=5). […] The pD2 value for 2-methylthio-ATP is 8.0±0.15, as reported by Hoyle et al., in Receptor Data for Biological Experiments, (H. N. Doods and J. C. A. Van Meel, eds., 1992b) at pp. 54-61.
as §1

[5] = biological target: T3, P2X receptor (vas deferens) (Cavia porcellus, UniProt A0A286XVA9); assay: Contraction of guinea pig isolated vas deferens
T3 sequence (A0A286XVA9 1-399): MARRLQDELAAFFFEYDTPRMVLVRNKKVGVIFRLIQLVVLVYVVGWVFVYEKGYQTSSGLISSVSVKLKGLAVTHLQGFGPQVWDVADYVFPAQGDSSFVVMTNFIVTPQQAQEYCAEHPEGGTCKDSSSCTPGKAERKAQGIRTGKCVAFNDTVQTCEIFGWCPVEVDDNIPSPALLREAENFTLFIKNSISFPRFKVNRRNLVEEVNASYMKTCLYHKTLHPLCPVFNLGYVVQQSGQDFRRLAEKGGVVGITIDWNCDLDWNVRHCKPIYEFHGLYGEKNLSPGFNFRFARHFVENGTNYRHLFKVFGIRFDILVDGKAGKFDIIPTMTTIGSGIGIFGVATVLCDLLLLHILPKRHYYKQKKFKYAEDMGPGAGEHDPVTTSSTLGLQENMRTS

[6] = turkey erythrocyte membranes, mean ± S.E.M. for at least 2 determinations, read-out: phosphatidyl inositol metabolism (K0.5, nM) erythrocyte
[7] = turkey erythrocyte membranes, read-out: K0.5

T1 sequence (P49652 whole entry): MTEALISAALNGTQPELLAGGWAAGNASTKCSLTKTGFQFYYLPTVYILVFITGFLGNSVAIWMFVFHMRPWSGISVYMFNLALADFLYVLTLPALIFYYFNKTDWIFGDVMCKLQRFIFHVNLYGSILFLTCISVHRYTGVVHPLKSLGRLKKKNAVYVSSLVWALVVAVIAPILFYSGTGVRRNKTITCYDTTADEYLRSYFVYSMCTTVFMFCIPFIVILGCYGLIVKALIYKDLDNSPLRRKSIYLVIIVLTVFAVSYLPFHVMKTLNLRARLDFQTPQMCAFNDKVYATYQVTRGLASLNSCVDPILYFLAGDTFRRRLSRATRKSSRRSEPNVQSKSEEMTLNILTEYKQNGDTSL
T2 sequence (P59902 whole entry): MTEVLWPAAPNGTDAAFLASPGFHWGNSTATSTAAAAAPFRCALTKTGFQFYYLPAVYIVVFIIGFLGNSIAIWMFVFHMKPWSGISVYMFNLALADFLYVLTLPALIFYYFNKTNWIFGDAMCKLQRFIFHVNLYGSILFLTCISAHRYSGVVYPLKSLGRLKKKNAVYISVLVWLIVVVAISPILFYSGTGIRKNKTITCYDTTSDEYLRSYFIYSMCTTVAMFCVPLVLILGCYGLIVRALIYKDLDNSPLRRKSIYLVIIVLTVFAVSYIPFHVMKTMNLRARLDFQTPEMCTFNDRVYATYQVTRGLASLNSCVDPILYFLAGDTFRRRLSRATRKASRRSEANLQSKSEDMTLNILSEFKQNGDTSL

Row | EC50 [1, 6] [nM] | SMILES | relaxation pD2, mes. artery [2] | activity/potency in words, turkey erythrocyte ([1]; turkey erythrocyte membranes) | relaxation pD2, aorta [3] | further results
1 | 58 ± 5 | CCCCCCSc1nc(N)c2ncn([C@@H]3O[C@H](COP(=O)(O)O)[C@@H](O)[C@H]3O)c2n1 [2-hexylthio AMP] | – | – | – | –
2 | 7000 | O=P(O)(O)OP(=O)(O)OP(=O)(O)OC[C@H]1O[C@@H](n2cnc3c(NCCc4ccccc4)ncnc32)[C@H](O)[C@@H]1O [N^6 -phenylethyl ATP, N^6 -phenylethyl-ATP] | – | – | – | –
3 | 773 ± 328 | Nc1nc(SCCCCCCCS)nc2c1ncn2[C@@H]1O[C@H](COP(=O)(O)OP(=O)(O)OP(=O)(O)O)[C@@H](O)[C@H]1O [2-(7-Thioheptyl)thio-ATP, 2-(7-Thioheptylthio)-adenosine-5'-triphosphate] | – | – | – | –
4 | 214 ± 2 | CCCCCCCCCCSc1nc(N)c2ncn([C@@H]3O[C@H](COP(=O)(O)O)[C@@H](O)[C@H]3O)c2n1 [2-decylthio AMP] | – | – | – | –
5 | 10000 | CCCCCSc1nc(N)c2ncn([C@@H]3O[C@H](COP(=O)(O)O)[C@@H](O)[C@H]3O)c2n1 [2-pentylthio AMP] | – | – | – | –
6 | 295 ± 6 | CCCCCCCCSc1nc(N)c2ncn([C@@H]3O[C@H](COP(=O)(O)O)[C@@H](O)[C@H]3O)c2n1 [2-octylthio AMP] | – | – | – | –
7 | 72.8 ± 46.6 | NCCCCCCCSc1nc(N)c2ncn([C@@H]3O[C@H](COP(=O)(O)OP(=O)(O)OP(=O)(O)O)[C@@H](O)[C@H]3O)c2n1 [2-(7-Aminoheptyl)thio-ATP, 2-(7-Aminoheptylthio)-adenosine-5'-triphosphate] | – | – | – | –
8 | 1000 | CCSCCSc1nc(N)c2ncn([C@@H]3O[C@H](COP(=O)(O)O)[C@@H](O)[C@H]3O)c2n1 | – | – | – | –
9 | – | Nc1ncnc2c1ncn2[C@@H]1O[C@H](CO)[C@@H](O)[C@H]1O [Adenosine, reference compound] | 6.0 | – | 5.7 | EC50 ([1]; at 10^-5 M, read-out: phosphatidyl inositol metabolism (K0.5) erythrocyte, class symbol): > 10000 nM; EC50 [4]: 126000 nM
10 | 1000 | CCCCCCCCCCCSc1nc(N)c2ncn([C@@H]3O[C@H](COP(=O)(O)O)[C@@H](O)[C@H]3O)c2n1 [2-undecylthio AMP] | – | – | – | –
11 | 25.9 ± 10 | N#CSCCCCCCCSc1nc(N)c2ncn([C@@H]3O[C@H](COP(=O)(O)OP(=O)(O)OP(=O)(O)O)[C@@H](O)[C@H]3O)c2n1 [2-[(7-Thiocyanatoheptyl)thio]-ATP, 2-(7-Thiocyanatoheptylthio)-adenosine-5'-triphosphate] | – | at least two orders of magnitude more potent | – | EC50 [1, 7]: 5 to 30 nM
12 | – | Cn1c(=O)c2c(ncn2C)n(CCOP(=O)(O)OP(=O)(O)OP(=O)(O)O)c1=O [1,7-dimethyl-3-(2-hydroxyethyl)xanthine triphosphate] | – | – | – | EC50 [1, 7]: 100000 nM
13 | 1000 | CCCCCCCSc1nc(N)c2ncn([C@@H]3O[C@H](COP(=O)(O)O)[C@@H](O)[C@H]3O)c2n1 [2-hepylthio AMP] | – | – | – | –
14 | – | Cn1c(=O)c2c(ncn2CCOP(=O)(O)OP(=O)(O)OP(=O)(O)O)n(C)c1=O [β-Hydroxyethyltheophylline triphosphate] | – | – | – | EC50 [1, 7]: 26900 nM
15 | 1.53 ± 0.21 | Nc1ccc(CCSc2nc(N)c3ncn([C@@H]4O[C@H](COP(=O)(O)OP(=O)(O)OP(=O)(O)O)[C@@H](O)[C@H]4O)c3n2)cc1 [2-(2-p-Aminophenylethyl)-thio-ATP, 2-[2-(p-Aminophen)ethylthio]adenosine 5'-triphosphate] | – | at least two orders of magnitude more potent | – | EC50 [1, 7]: 5 to 30 nM

Row | SMILES | EC50 [1, 6] [nM] | relaxation pD2, mes. artery [2] | activity/potency in words, turkey erythrocyte ([1]; turkey erythrocyte membranes) | relaxation pD2, aorta [3] | further results
16 | Nc1ncnc2c1ncn2[C@@H]1O[C@H](COP(=O)(O)OP(=O)(O)OP(O)(O)=S)[C@@H](O)[C@H]1O [ATP-γ-S, reference compound] | 1260 ± 380 | 5.8 | enhanced potency relative to the parent compound | 5.7 | activity/potency in words, taenia coli ([4]; guinea pig taenia coli): not in the taenia coli
17 | Nc1nc(SC2CCCCC2)nc2c1ncn2[C@@H]1O[C@H](COP(=O)(O)OP(=O)(O)OP(=O)(O)O)[C@@H](O)[C@H]1O [2-Cyclohexylthio-ATP, 2-cyclohexylthio-ATP] | 24 ± 4 | 5.9 | at least two orders of magnitude more potent | 6.3 | EC50 [1, 7]: 5 to 30 nM; EC50 [4]: 15.8 nM
18 | Nc1ncnc2c1ncn2[C@@H]1O[C@H](COP(=O)(O)OP(O)(O)=S)[C@@H](O)[C@H]1O [ADP-β-S, reference compound] | 96 ± 27 | 5.8 | enhanced potency relative to the parent compound; also recorded: a very high affinity for the turkey erythrocyte P2Y receptor | 5.8 | times more potent than ADP, turkey erythrocyte ([1]; relative to ADP): ~400 times; times more potent than ATP, turkey erythrocyte ([1]; relative to ATP): approximately 140 times; activity/potency in words, taenia coli ([4]; guinea pig taenia coli): not in the taenia coli; also recorded: no greater affinity for the P2Y receptor in the guinea-pig taenia coli than ATP or ADP
19 | Nc1nc(SCCc2ccccc2)nc2c1ncn2[C@@H]1O[C@H](COP(=O)(O)OP(=O)(O)OP(=O)(O)O)[C@@H](O)[C@H]1O [2-Phenylethylthio-ATP, 2-phenylethylthio-ATP] | 30 ± 17 | 6.2 | at least two orders of magnitude more potent | 6.5 | EC50 [1, 7]: 5 to 30 nM; EC50 [4]: 79.4 nM
20 | Nc1ncnc2c1ncn2[C@@H]1O[C@H](COP(=O)(O)OP(=O)(O)NP(=O)(O)O)[C@@H](O)[C@H]1O [AppNHp, reference compound] | 4450 ± 1150 | 6.6 | equipotent with ATP in the erythrocytes | 5.5 | activity/potency in words, vas deferens [5]: an effect similar to methylene replacement; activity/potency in words, taenia coli ([4]; guinea pig taenia coli): an effect similar to methylene replacement
21 | Nc1nc(SCCc2ccc([N+](=O)[O-])cc2)nc2c1ncn2[C@@H]1O[C@H](COP(=O)(O)O)[C@@H](O)[C@H]1O [2-(2-p-Nitrophenylethyl)-thio-AMP, 2-[2-(p-nitrophen)ethylthio]adenosine 5'-monophosphate] | 3000 ± 1200 | 5.0 | – | 6.1 | activity/potency in words, taenia coli ([4]; guinea pig taenia coli): slightly less potent than ATP; relaxation pD2, taenia coli ([4]; guinea pig taenia coli, log molar units): 6.5
